Columns and labels:
human PBMC cells = experiment: LPS-induced IL1β and TNFα cytokine release from PBMC cells (ELISA); type: cell-based; details: LPS-exposed human PBMC
Experimental: (§1) FIGS. 20A-20J is a table depicting benzathine compounds, and assay results. PBMC cells (0.6 ml at 1.5*10^6/ml) were treated with 2 ug/ml LPS for 16 hrs along with each compound at different concentrations. IL1β and TNFα cytokine release were monitored by ELISA to calculate the IC50. U937 monocyte (0.6 ml at 1.5*10^6/ml) were treated with each compound at different concentrations for 16 h. Cells were then stained with Trypan blue to differentiate dead cells, and calculate the LD50. Therapeutic index (TI)=LD50/IC50. Compounds marked in red are high value targets (low IC50, high LD50) and require further testing in vivo.
(§2) Briefly, compounds were added to human PBMC cells at different concentrations that were exposed to […] and cytokine secretion was monitored by ELISA to determine the IC50. Compounds were also added to U937 monocytes at different concentrations, and cells were stained with trypan blue to determine the LD50. […] Several functional studies were undertaken to assess anti-inflammatory effects focusing on BC-1215.

U937 monocyte = U937 monocyte Trypan blue cell death (LD50); type: cell-based, human; details: U937 monocytes, 16 h
Experimental: as §1, §2

PBMC cells = experiment: LPS-treated PBMC human cytokine array; type: cell-based; details: 10 ug/ml compound, 2 ug/ml LPS, 16 hrs
Experimental: FIG. 9. BC-1215 inhibits a broad spectrum of Th1 panel cytokines. PBMC cells (0.6 ml at 1.5*10^6/ml) were treated with 2 ug/ml LPS for 16 his with BC-1215 at 10 ug/ml. Cytokine release was monitored by the human cytokine array (R&D systems).
PBMC cells were treated with 2 ug/ml LPS for 16 hrs along with BC-1215 at 10 ug/ml. Cytokine release was monitored by a human cytokine array (R&D systems). […] These cytokines are tightly linked to the pathogenesis of many pro-inflammatory diseases, some of which have led to the use of blocking cytokine antibodies to reduce disease severity. For example: GM-CSF drives inflammation in rheumatoid arthritis (RA), and currently, GM-CSF blocking antibodies (MOR103) have been tested in Phase 1b/2a trial in patients suffering from RA.

MLE cells = MLE cells protein immunoblotting; type: cell-based, murine; details: different concentrations, 16 h
From the text: FIGS. 10A-10E. BC-1215 inhibits FBXO3 and decreases TRAF protein levels. FIG. 10A. […] FIG. 10B. In vitro ubiquitination assays. […] FIG. 10C. […] Cells were collected and assayed for immunoblotting. FIG. 10D. […] FIG. 10E.
BC-1215 inhibits FBXO3 and decreases TRAF protein levels. […] Cells were collected and assayed for protein immunoblotting.

C57BL6 mice [1] = experiment: LPS induced (endotoxin) septic shock model; type: in vivo; details: IP, 10 min before 100 ug LPS IP; blood at 90 min
Experimental: FIG. 11. BC-1215 inhibits cytokine release from in an endotoxin septic shock model. BC-1215 was solubilized in water using acetic acid in a 1:2 molar ratio; the stock solution of BC-1215 was 5 mg/ml. C57BL6 mice were deeply anesthetized with ketamine (80-100 mg/kg intraperitoneally (i.p.) and xylazine (10 mg/kg i.p.). 500 ug, 100 ug, 20 ug, 4 ug and 0.8 ug of BC-1215 was administered to mice through an intraperitoneal (IP) injection. 10 min later, mice were given 100 ug of LPS (E. coli) through an IP injection. 90 min later, mice were euthanized; blood was collected and tested for IL1-β, IL-6 and TNFα assays. (n=3/mice group at each dose)
Compound BC-1215 was first solubilized in water using acetic acid in a 1:2 molar ratio; the stock solution of BC-1215 was 5 mg/ml. 500 ug, 100 ug, 20 ug, 4 ug and 0.8 ug of BC-1215 was administered to mice though an intraperitoneal (IP) injection. 10 min later, mice were given 100 ug of LPS (E. coli) through an IP injection. 90 min later, mice were euthanized; blood was collected and tested for IL1-β, IL-6 and TNFα cytokine assays.

C57BL6 mice [2] = experiment: Pseudomonas aeruginosa PA103 pneumonia model; type: in vivo; details: 100 ug IP, PA103 18 h
C57BL6 mice [3] = experiment: DSS induced (acute) colitis; type: in vivo; details: 200 ug IP daily, 3.5% DSS up to five days
Experimental: FIGS. 17A-17D. BC-1215 reduces DSS induced colonic inflammation. FIGS. 17A-FIG. 17C. C57BL6 mice were fed with water containing 3.5% dextran sulfate sodium (DSS) for up to five days. Mice were treated with either vehicle or 100 ug of BC-1215 daily (via IP injection). Mice were then euthanized; the length of the colon was measured and graphed in (FIG. 17A). Colonic tissues were also analyzed for IL1β (FIG. 17B) and TNFα (FIG. 17C) by ELISA. (n=4 mice/group, *p<0.05 versus DSS) FIG. 17D, H&E staining was performed on colonic samples. (n=4 mice/group, *p<0.05 versus DSS)
FIGS. 24A-24E. […] A-D. C57BL6 mice were fed with water ad lib containing 3.5% dextran sulfate sodium (DSS) for up to five days. Mice were treated with either vehicle (control [CON]) or BC-1261 (150 μg) daily (via an i.p. injection), or BC-1261 were administered into drinking water at 30 μg/ml (po). Mice were then euthanized and the length of the colon was measured and graphed in (A-B). Colonic tissues were also analyzed for TNFα (C) and IL6(D). E. H&E staining was performed on colonic sections. The data represent n=4 mice/group, *P<0.05 versus DSS and **P<0.05 versus CON.
BC-1215 ameliorates DSS induced colitis. BC-1215 was also tested in a mouse colitis model to confirm its anti-inflammatory activity. Briefly, C57BL6 mice were fed with water containing 3.5% dextran sulfate sodium (DSS) for up to five days. Mice were treated with either vehicle or 200 ug of BC-1215 daily (via IP injection). Mice were then euthanized; the length of colons was measured. […] Colonic tissue cytokine levels were analyzed. […] Thus, the FBXO3 inhibitor BC-1215 suppresses inflammation in chemical induced colitis model in mice.

Experimental for Hela cells: Hela cells were treated with BC-1215 at different concentrations for 24 h before cell cycle analysis (BD bioscience).

In the case of `c1ccc(-c2ccc(CNCCNCc3ccc(-c4ccccn4)cc3)cc2)nc1` [BC-1215], the “IC50 (cytokine secretion)” value (human PBMC cells) is reported as “high”, the LD50 (U937 monocyte) is reported as “low” and the “TH1 panel cytokine release” value (PBMC cells) is reported as “significantly suppress the majority of the TH1 panel cytokines”. For the same compound, the FBXL2 protein levels (MLE cells) was “increased FBXL2 protein levels in a dose dependent manner”, the TRAF protein levels (MLE cells) was “decreasing TRAF protein levels” and the “IC50 IL-1β” value (C57BL6 mice [1]) was 1 mg/kg. For the same compound, the “IC50 IL-6” value (C57BL6 mice [1]) was 2.5 mg/kg, the “IC50 TNFα” value (C57BL6 mice [1]) was 1.2 mg/kg and the cell infiltrates (C57BL6 mice [2]) was “decreased”. The lavage cell counts (C57BL6 mice [2]) was “decreased”, the “lavage pro-inflammatory cytokine levels” value (C57BL6 mice [2]) was “significantly decreased” and the lavage protein concentration (C57BL6 mice [2]) was “decreased”. The lung compliance (C57BL6 mice [2]) was “increased compliance”, the lung elastance (C57BL6 mice [2]) was “reduced elastance” and the lung resistance (C57BL6 mice [2]) was “decreased lung resistance”. For the same compound, the “IL1β levels in colon tissues” value (C57BL6 mice [3]) was “remarkable reduction”, the “TNFα levels in colon tissues” value (C57BL6 mice [3]) was “remarkable reduction” and the colon length (C57BL6 mice [3]) was “no significant decrease in colon length compared to control”. For the same compound, the “colonic tissue injury (H&E)” value (C57BL6 mice [3]) was “significantly reduced” and the cell cycle progression (Hela cells) was “did not significantly alter cell cycle progression”.
